Columns and labels:
Lck (p56^lck, active) = target: T1, Lck (p56^lck, active) (Homo sapiens, UniProt P06239); experiment: SRC-Inhibitor-Assay (time-resolved fluorescence), Lck enzyme; format: biochemical; details: ATP 5 μM, peptide 10 μM, enzyme 2.5 U/ml, pre-incubation 15 min at 15° C.
T1 construct: purchased Upstate (UBI)
Protocol: (§1) The activity of the compounds according to this invention as inhibitors for the src-family tyrosine kinases was shown by using the following assay.
(§2) SRC-Inhibitor-Assay Parameters:
(§3) • Reaction mixture: • ATP 5 μM • Peptide (R+Ja133-Ro): 10 μM • Ja133-Ro 196 nM • Ro 9.8 μM • PT66 230 ng/ml • Assay buffer: 4 mM MgCl2 • 2 mM TCEP • 50 mM HEPES • 0,1% Tween 20 • pH 7.3 • Enzyme: 2.5 U/ml • Inhibitor: max. 25 μM • min. 0.42 nM Material: • Eu-labelled phosphotyrosine antibody: -for Lck Cisbio Mab PT66-K, • for Src EG&G Wallac PT66 Eu-W1024 (all commercially available). • Peptides: Ro: NH2-A-E-E-E-I-Y-G-E-F-E-A-K-K-K-K-CONH2 (SEQ ID NO: 1), and • Ja133-Ro: Ja133-G-Aminocaprylic acid-A-E-E-E-I-Y-G-E-F-E-A-K-K-K-K-CONH2 (SEQ ID NO: 2), wherein Ja133 is LightCycler-Red 640-N-hydroxy succinimide ester; • whereby both peptides were synthesized by an optimized solid phase peptide synthesis protocol (Merrifield, Fed. Proc. Fed. Amer. Soc. Exp. Biol. 21 (1962) 412) on a Zinsser SMP350 peptide synthesizer. Shortly, the peptide was assembled on 160 mg (22.8 μmol scale) of a Rink-Linker modified polystyrene solid phase by repeatedly conjugating an twenty fold excess of aminoacids each protected by temporary piperidine labile Fmoc- and permanent acid labile tert-Bu-, BOC- and Otert-Bu-groups depending on the side chain function. The substrate sequence AEEEIYGEFEAKKKK (SEQ ID NO: 1) was N-terminal additionally mounted with the spacer amino acids Aminocaprylic acid and Glycin. After cleavage of the N-terminal temporary protecting group the still attached and protected peptide was labeled with a 1.5 fold amount of LightCycler-Red 640-N-hydroxy succinimide ester (purchased by Roche Diagnostics GmbH) and triethylamine. After 3 hrs. the resin was washed with Dimethylformamide and Isopropanol until the eluates of the blue resin got colo-rless. […] The substrate was finally isolated by a preparative reverse phase HPLC purification. The purification yielded 12.2 mg RP-HPLC single peak pure blue material (lyophilisate). The identity was proven by MALDI mass spectroscopy [2720.0]. • Enzymes: Upstate Lck (p56^lck, active), Upstate Src (p60^c-src, partially purified) were purchased from UBI. • Time-resolved Fluorescence Assay: Reader: Perkin Elmer, Wallac Viktor 1420-040 multilabel counter; Liquid handling system: Beckman Coulter, Biomek 2000. ATP, Tween 20, HEPES were purchased from Roche Molecular Biochemicals, MgCl2 and MnCl2 were purchased from Merck Eurolab, TCEP was purchased from Pierce, 384 Well low volume fluorescence plates was purchased from Falcon. Assay Description:
(§4) At first the enzyme is pre-incubated for 15 min. at 15° C. in aqueous solution with corresponding amounts of inhibitors according to this invention. Then the phosphorylation reaction is started by adding a reaction mixture, containing ATP, Peptide and PT66, and subsequent shaking. The proceeding of this reaction is immediately monitored using time resolved fluorescence spectroscopy in a suitable well plate reader.
(§5) The IC50-values can be obtained from the reaction rates by using a non-linear curve fit (Excelfit).

[1] = target: T2, Src (p60^c-src, partially purified) (Homo sapiens, UniProt P12931); experiment: SRC-Inhibitor-Assay (time-resolved fluorescence), Src enzyme; format: biochemical; details: ATP 5 μM, peptide 10 μM, enzyme 2.5 U/ml, pre-incubation 15 min at 15° C.
T2 construct: purchased Upstate (UBI)
Protocol: as §1, §2, §3, §4, §5

T1 sequence (P06239 whole entry, species assumed): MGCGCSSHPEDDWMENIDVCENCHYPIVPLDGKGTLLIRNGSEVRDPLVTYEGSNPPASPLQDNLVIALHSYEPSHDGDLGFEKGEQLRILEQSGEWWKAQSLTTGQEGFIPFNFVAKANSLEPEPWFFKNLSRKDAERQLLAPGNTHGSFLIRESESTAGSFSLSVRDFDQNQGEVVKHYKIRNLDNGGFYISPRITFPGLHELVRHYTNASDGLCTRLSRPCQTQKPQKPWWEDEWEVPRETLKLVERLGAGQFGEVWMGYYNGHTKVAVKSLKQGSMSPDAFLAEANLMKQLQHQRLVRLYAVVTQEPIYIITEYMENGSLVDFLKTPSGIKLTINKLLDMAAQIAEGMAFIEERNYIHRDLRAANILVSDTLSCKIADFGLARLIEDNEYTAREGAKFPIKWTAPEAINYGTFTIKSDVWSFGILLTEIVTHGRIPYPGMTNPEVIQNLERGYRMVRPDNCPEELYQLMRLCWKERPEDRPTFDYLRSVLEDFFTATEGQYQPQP
T2 sequence (P12931 whole entry, species assumed): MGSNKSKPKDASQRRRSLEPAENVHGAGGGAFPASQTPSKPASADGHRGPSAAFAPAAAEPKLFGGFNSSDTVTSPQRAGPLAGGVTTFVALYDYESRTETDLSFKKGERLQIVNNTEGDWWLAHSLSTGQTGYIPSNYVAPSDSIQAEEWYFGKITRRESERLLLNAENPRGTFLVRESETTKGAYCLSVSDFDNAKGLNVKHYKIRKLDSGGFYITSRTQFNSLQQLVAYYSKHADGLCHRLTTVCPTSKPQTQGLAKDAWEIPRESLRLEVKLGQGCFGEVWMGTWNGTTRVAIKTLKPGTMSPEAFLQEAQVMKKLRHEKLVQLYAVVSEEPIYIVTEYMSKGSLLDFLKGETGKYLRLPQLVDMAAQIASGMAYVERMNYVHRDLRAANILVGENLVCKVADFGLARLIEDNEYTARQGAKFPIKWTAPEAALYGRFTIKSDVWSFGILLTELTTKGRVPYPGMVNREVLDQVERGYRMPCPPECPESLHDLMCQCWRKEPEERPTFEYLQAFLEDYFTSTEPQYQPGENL

SMILES | IC50 (Lck (p56^lck, active)) [nM] | IC50 [1] [nM]
CN(C)CC(=O)NNC(=O)c1nc2nc(Nc3ccc(F)cc3)ncc2cc1-c1ccccc1Br [Example 3-46, 6-(2-Bromo-phenyl)-2-(4-fluoro-phenylamino)-pyrido[2,3-d]pyrimidine-7-carboxylic acid N′-(2-dimethylamino-acetyl)-hydrazide] | 38.1 | 16.8
O=C(N[C@H]1CCCNC1)c1nc2nc(Nc3ccc(F)cc3)ncc2cc1-c1ccccc1Br [Example 3-47, (S)-6-(2-Bromo-phenyl)-2-(4-fluoro-phenylamino)-pyrido[2,3-d]pyrimidine-7-carboxylic acid piperidin-3-ylamide] | 27.5 | 6.6
O=C(NC[C@H]1CCCN1)c1nc2nc(Nc3ccc(F)cc3)ncc2cc1-c1ccccc1Br [Example 3-48, (R)-6-(2-Bromo-phenyl)-2-(4-fluoro-phenylamino)-pyrido[2,3-d]pyrimidine-7-carboxylic acid (pyrrolidin-2-ylmethyl)-amide] | 38.1 | 2.1
O=C(Nc1cc[nH]n1)c1nc2nc(Nc3ccc(F)cc3)ncc2cc1-c1ccccc1Br [Example 3-49, 6-(2-Bromo-phenyl)-2-(4-fluoro-phenylamino)-pyrido[2,3-d]pyrimidine-7-carboxylic acid (1H-pyrazol-3-yl)-amide] | 7.3 | 4.3
N#Cc1nc2nc(Nc3ccc(N4CCOCC4)cc3)ncc2cc1-c1ccccc1Br [Example 4-1, 6-(2-Bromo-phenyl)-2-(4-morpholin-4-yl-phenylamino)-pyrido[2,3-d]pyrimidine-7-carbonitrile; compound with trifluoro-acetic acid] | 20.1 | 6.5
CCN(CC)CCOc1ccc(Nc2ncc3cc(-c4ccccc4Br)c(C#N)nc3n2)cc1 [Example 4-2, 6-(2-Bromo-phenyl)-2-[4-(2-diethylamino-ethoxy)-phenylamino]-pyrido[2,3-d]pyrimidine-7-carbonitrile] | 5.1 | 1.8
N#Cc1nc2nc(Nc3ccc(OCCO)cc3)ncc2cc1-c1ccccc1Br [Example 4-3, 6-(2-Bromo-phenyl)-2-[4-(2-hydroxy-ethoxy)-phenylamino]-pyrido[2,3-d]pyrimidine-7-carbonitrile] | 49.9 | 4.5
CCNCCOc1ccc(Nc2ncc3cc(-c4ccccc4Br)c(C#N)nc3n2)cc1 [Example 4-4, 6-(2-Bromo-phenyl)-2-[4-(2-ethylamino-ethoxy)-phenylamino]-pyrido[2,3-d]pyrimidine-7-carbonitrile] | 4.2 | 1.1
C[S+]([O-])c1cccc(Nc2ncc3cc(-c4ccccc4Br)c(C#N)nc3n2)c1 (stereo not drawn) [Example 4-5, 6-(2-Bromo-phenyl)-2-(3-methanesulfinyl-phenylamino)-pyrido[2,3-d]pyrimidine-7-carbonitrile] | 52.1 | 3.5
N#Cc1nc2nc(Nc3cccc(S(=O)(=O)CCO)c3)ncc2cc1-c1ccccc1Br [Example 4-6, 6-(2-Bromo-phenyl)-2-[3-(2-hydroxy-ethanesulfonyl)-phenylamino]-pyrido[2,3-d]pyrimidine-7-carbonitrile] | 99.7 | 16.2
O=C(NCCO)c1nc2nc(Nc3cccc(CO)c3)ncc2cc1-c1ccccc1Br [Example 7-4, 6-(2-bromo-phenyl)-2-(3-hydroxymethyl-phenylamino)-pyrido[2,3-d]pyrimidine-7-carboxylic acid (2-hydroxy-ethyl)-amide] | 99.1 | 30.9
NS(=O)(=O)CCNC(=O)c1nc2nc(Nc3ccc4c(c3)S(=O)(=O)CCO4)ncc2cc1-c1ccccc1Br [Example 7-13, 6-(2-bromo-phenyl)-2-(4,4-dioxo-3,4-dihydro-2H-4lambda*6*-benzo[1,4]oxathiin-6-ylamino)-pyrido[2,3-d]pyrimidine-7-carboxylic acid (2-sulfamoyl-ethyl)-amide] | 232 | 11.3
CS(=O)(=O)NCCNC(=O)c1nc2nc(Nc3ccc(N4CCOCC4)cc3)ncc2cc1-c1ccccc1Br [Example 7-15, 6-(2-bromo-phenyl)-2-(4-morpholin-4-yl-phenylamino)-pyrido[2,3-d]pyrimidine-7-carboxylic acid (2-methanesulfonylamino-ethyl)-amide] | 11.4 | 0.4
CS(=O)(=O)NCCNC(=O)c1nc2nc(Nc3cccc(NS(C)(=O)=O)c3)ncc2cc1-c1ccccc1Br [Example 7-17, 6-(2-bromo-phenyl)-2-(3-methanesulfonylamino-phenylamino)-pyrido[2,3-d]pyrimidine-7-carboxylic acid (2-methanesulfonylamino-ethyl)-amide] | 11.8 | 3.5
CS(=O)(=O)NCCNC(=O)c1nc2nc(Nc3ccc(OCCO)cc3)ncc2cc1-c1ccccc1Br [Example 7-18, 6-(2-bromo-phenyl)-2-[4-(2-hydroxy-ethoxy)-phenylamino]-pyrido[2,3-d]pyrimidine-7-carboxylic acid (2-methanesulfonylamino-ethyl)-amide] | 18.8 | 8.8
CN1CCN(c2ccc(Nc3ncc4cc(-c5ccccc5Br)c(C(=O)NCCNS(C)(=O)=O)nc4n3)cc2)CC1 [Example 7-19, 6-(2-bromo-phenyl)-2-[4-(4-methyl-piperazin-1-yl)-phenylamino]-pyrido[2,3-d]pyrimidine-7-carboxylic acid (2-methanesulfonylamino-ethyl)-amide] | 2.1 | 1
COc1cccc(Nc2ncc3cc(-c4ccccc4Br)c(C(=O)NCCNS(C)(=O)=O)nc3n2)c1 [Example 7-20, 6-(2-bromo-phenyl)-2-(3-methoxy-phenylamino)-pyrido[2,3-d]pyrimidine-7-carboxylic acid (2-methanesulfonylamino-ethyl)-amide] | 11.1 | 6.1
CC(=O)Nc1cccc(Nc2ncc3cc(-c4ccccc4Br)c(C(=O)NCCNS(C)(=O)=O)nc3n2)c1 [Example 7-21, 2-(3-acetylamino-phenylamino)-6-(2-bromo-phenyl)-pyrido[2,3-d]pyrimidine-7-carboxylic acid (2-methanesulfonylamino-ethyl)-amide] | 12 | 1.8
CS(=O)(=O)NCCNC(=O)c1nc2nc(Nc3ccc4c(c3)S(=O)(=O)CCO4)ncc2cc1-c1ccccc1Br [Example 7-22, 6-(2-bromo-phenyl)-2-(4,4-dioxo-3,4-dihydro-2H-4lambda*6*-benzo[1,4]oxathiin-6-ylamino)-pyrido[2,3-d]pyrimidine-7-carboxylic acid (2-methanesulfonylamino-ethyl)-amide] | 37 | 5
CS(=O)(=O)NCCNC(=O)c1nc2nc(Nc3cccc(SCCO)c3)ncc2cc1-c1ccccc1Br [Example 7-23, 6-(2-bromo-phenyl)-2-[3-(2-hydroxy-ethylsulfanyl)-phenylamino]-pyrido[2,3-d]pyrimidine-7-carboxylic acid (2-methanesulfonylamino-ethyl)-amide] | 6.1 | 1
CS(=O)(=O)NCCNC(=O)c1nc2nc(Nc3ccc4c(c3)OC(CO)CO4)ncc2cc1-c1ccccc1Br (stereo not drawn) [Example 7-24, 6-(2-bromo-phenyl)-2-(3-hydroxymethyl-2,3-dihydro-benzo[1,4]dioxin-6-ylamino)-pyrido[2,3-d]pyrimidine-7-carboxylic acid (2-methanesulfonylamino-ethyl)-amide] | 9 | 4

Source: patent US7163941B2, “Pyrido[2,3-d]pyrimidin-7-carboxylic acid derivatives, their manufacture and use as pharmaceutical agents” (Hoffmann-La Roche Inc., priority 2003, dated 2007)
